Results: US8129371B2, “Thienopyrimidine and pyrazolopyrimidine compounds and their use as mTOR kinase and PI3 kinase inhibitors” (Wyeth LLC, priority 2007, dated 2012)

Experiments:
Human mTOR (FLAG-TOR) = target: T1, Human mTOR (FLAG-TOR) (Homo sapiens, UniProt P42345); assay: Human mTOR kinase assay with purified enzyme, DELFIA format; assay type: biochemical
T1 construct: FLAG
In short: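 Purified FLAG-mTOR in HEPES pH 7.4 buffer with 10 mM MnCl2 was preincubated with inhibitor and reacted 2 h at room temperature with His6-S6K substrate, then stopped with EDTA/EGTA. Phospho-T389 S6K detected by DELFIA with Eu-labelled antibody (40 ng/mL) after plate capture; inhibition computed from signal.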

PI3K [1] = target: T2, PI3K (Homo sapiens, UniProt P42336); assay: Fluorescence polarization assay for PI3K; assay type: biochemical; settings: PI3 Kinase α; read-out: PI3 Kinase α IC50
T2 construct: PI3 Kinase α IC50; other: PI3 Kinase α; other: PI3 Kinase α isoform, fluorescence polarization
In short: (§1)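 PI3K was preincubated with compound (final DMSO 1%), and the reaction was started with PIP2/ATP substrate and run 30–60 min. It was stopped with a detector mix giving 10 nM red probe and 70 nM GST-GRP.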

PI3K [2] = target: T3, PI3K (Homo sapiens, UniProt P48736); assay: Fluorescence polarization assay for PI3K; assay type: biochemical; settings: PI3 Kinase γ; read-out: PI3 Kinase γ IC50
T3 construct: PI3 Kinase γ IC50; other: PI3 Kinase γ; other: PI3 Kinase γ isoform, fluorescence polarization
In short: as §1

prostate line LNCap = assay: In vitro cell culture growth assay (MTS), LNCap; assay type: cell-based; settings: Homo sapiens, LNCaP, 72 h, LNCap cells, three days after drug treatment
In short: (§2)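 Plate cells; add inhibitors on day 1; after 3 days' treatment, add MTS; read A490; express as percent growth of vehicle-treated control.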

breast line MDA468 = assay: In vitro cell culture growth assay (MTS), MDA468; assay type: cell-based; settings: Homo sapiens, 72 h, MDA468 cells, three days after drug treatment
In short: as §2

T3 sequence (P48736 whole entry, canonical isoform): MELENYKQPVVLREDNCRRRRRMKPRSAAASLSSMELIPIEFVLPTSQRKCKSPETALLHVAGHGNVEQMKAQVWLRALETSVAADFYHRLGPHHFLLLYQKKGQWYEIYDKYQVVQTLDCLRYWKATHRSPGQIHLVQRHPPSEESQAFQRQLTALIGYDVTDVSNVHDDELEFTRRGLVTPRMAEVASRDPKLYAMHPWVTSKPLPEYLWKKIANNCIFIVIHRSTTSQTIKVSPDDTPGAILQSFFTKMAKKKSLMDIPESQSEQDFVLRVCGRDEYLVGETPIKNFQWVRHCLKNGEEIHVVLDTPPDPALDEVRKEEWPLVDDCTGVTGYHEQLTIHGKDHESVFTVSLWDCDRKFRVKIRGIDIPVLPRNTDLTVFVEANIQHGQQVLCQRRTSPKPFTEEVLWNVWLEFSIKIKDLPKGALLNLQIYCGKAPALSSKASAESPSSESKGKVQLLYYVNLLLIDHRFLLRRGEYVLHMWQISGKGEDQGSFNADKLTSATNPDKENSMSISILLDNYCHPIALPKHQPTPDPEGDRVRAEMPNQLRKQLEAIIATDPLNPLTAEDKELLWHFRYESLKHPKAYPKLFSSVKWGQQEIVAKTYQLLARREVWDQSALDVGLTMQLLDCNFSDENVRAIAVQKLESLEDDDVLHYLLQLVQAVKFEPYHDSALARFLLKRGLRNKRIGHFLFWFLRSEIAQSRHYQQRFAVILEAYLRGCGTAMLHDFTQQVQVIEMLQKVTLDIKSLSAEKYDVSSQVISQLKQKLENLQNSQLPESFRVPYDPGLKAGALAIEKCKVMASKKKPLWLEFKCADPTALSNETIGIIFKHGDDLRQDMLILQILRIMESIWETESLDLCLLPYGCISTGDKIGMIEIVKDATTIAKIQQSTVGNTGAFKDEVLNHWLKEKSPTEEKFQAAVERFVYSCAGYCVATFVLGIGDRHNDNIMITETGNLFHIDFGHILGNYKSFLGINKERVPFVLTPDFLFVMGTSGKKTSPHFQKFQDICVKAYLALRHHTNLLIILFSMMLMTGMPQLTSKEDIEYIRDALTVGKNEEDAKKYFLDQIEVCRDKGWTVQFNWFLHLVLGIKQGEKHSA
T2 sequence (P42336 whole entry, canonical isoform): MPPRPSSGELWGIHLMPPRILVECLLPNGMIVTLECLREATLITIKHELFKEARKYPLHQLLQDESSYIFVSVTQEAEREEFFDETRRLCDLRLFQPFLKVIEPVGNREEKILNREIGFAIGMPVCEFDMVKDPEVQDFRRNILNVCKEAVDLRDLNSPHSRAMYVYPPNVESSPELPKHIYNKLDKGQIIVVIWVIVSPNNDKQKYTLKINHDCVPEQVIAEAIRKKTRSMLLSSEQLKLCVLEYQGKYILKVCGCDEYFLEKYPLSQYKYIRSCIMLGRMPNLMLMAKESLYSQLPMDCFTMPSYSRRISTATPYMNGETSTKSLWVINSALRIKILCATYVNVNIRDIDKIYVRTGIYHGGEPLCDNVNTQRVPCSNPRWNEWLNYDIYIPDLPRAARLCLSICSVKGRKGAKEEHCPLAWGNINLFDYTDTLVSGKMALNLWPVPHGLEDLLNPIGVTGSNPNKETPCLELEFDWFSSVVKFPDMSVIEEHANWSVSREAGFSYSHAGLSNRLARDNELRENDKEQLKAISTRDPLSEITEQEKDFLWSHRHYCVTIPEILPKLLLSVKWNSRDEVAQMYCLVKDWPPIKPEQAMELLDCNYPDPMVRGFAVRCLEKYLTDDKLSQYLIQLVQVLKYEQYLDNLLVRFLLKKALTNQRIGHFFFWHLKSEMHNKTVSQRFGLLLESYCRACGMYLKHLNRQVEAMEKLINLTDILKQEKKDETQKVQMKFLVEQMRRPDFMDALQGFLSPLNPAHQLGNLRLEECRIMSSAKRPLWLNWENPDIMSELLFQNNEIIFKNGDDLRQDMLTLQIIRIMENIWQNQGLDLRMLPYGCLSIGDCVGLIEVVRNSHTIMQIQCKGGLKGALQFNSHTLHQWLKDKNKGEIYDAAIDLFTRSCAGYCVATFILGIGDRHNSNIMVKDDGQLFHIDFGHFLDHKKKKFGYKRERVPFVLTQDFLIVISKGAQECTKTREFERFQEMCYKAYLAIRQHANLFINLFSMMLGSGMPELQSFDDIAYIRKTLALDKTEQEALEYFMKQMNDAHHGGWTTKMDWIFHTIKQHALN

IC50 (Human mTOR (FLAG-TOR))	IC50 (PI3K [1])	IC50 (PI3K [2])	IC50 (prostate line LNCap)	Compound	IC50 (breast line MDA468)
0.3 nM	166 nM	1160 nM	5 nM	CCn1ncc2c(N3CC4CCC(C3)O4)nc(-c3ccc(NC(=O)Nc4ccc(OCCO)nc4)cc3)nc21 [Example 282, 1-{4-[1-ethyl-4-(8-oxa-3-azabicyclo[3.2.1]oct-3-yl)-1H-pyrazolo[3,4-d]pyrimidin-6-yl]phenyl}-3-[6-(2-hydroxyethoxy)pyridin-3-yl]urea]	21 nM
0.975 nM	373 nM	4750 nM	< 1 nM	CCn1ncc2c(N3CC4CCC(C3)O4)nc(-c3ccc(NC(=O)Nc4ccc(OCCN5CCOCC5)nc4)cc3)nc21 [Example 283, 1-{4-[1-ethyl-4-(8-oxa-3-azabicyclo[3.2.1]oct-3-yl)-1H-pyrazolo[3,4-d]pyrimidin-6-yl]phenyl}-3-[6-(2-morpholin-4-ylethoxy)pyridin-3-yl]urea]	8 nM
1.5 nM	419 nM	> 10000 nM	6 nM	CCn1ncc2c(N3CC4CCC(C3)O4)nc(-c3ccc(NC(=O)Nc4ccc(N(C)C)nc4)cc3)nc21 [Example 284, 1-[6-(dimethylamino)pyridin-3-yl]-3-{4-[1-ethyl-4-(8-oxa-3-azabicyclo[3.2.1]oct-3-yl)-1H-pyrazolo[3,4-d]pyrimidin-6-yl]phenyl}urea]	80 nM
0.105 nM	23 nM	524 nM	< 1 nM	CCn1ncc2c(N3CC4CCC(C3)O4)nc(-c3ccc(NC(=O)Nc4ccc(C(N)=O)cc4)cc3)nc21 [Example 285, 4-[({4-[1-ethyl-4-(8-oxa-3-azabicyclo[3.2.1]oct-3-yl)-1H-pyrazolo[3,4-d]pyrimidin-6-yl]phenyl}carbamoyl)amino]benzamide]	1 nM
0.9 nM	270 nM	14900 nM	17 nM	CCn1ncc2c(N3CC4CCC(C3)O4)nc(-c3ccc(NC(=O)Nc4ccc(NC)nc4)cc3)nc21 [Example 286, 1-{4-[1-ethyl-4-(8-oxa-3-azabicyclo[3.2.1]oct-3-yl)-1H-pyrazolo[3,4-d]pyrimidin-6-yl]phenyl}-3-[6-(methylamino)pyridin-3-yl]urea]	200 nM
0.41 nM	164 nM	1460 nM	37 nM	CCn1ncc2c(N3CC4CCC(C3)O4)nc(-c3ccc(NC(=O)Nc4ccc(N)nc4)cc3)nc21 [Example 287, 1-(6-aminopyridin-3-yl)-3-{4-[1-ethyl-4-(8-oxa-3-azabicyclo[3.2.1]oct-3-yl)-1H-pyrazolo[3,4-d]pyrimidin-6-yl]phenyl}urea]	200 nM
0.575 nM	53 nM	534 nM	< 1 nM	CCn1ncc2c(N3CC4CCC(C3)O4)nc(-c3ccc(NC(=O)Nc4ccc(N5CCNCC5)cc4)cc3)nc21 [Example 288, 1-{4-[1-ethyl-4-(8-oxa-3-azabicyclo[3.2.1]oct-3-yl)-1H-pyrazolo[3,4-d]pyrimidin-6-yl]phenyl}-3-(4-piperazin-1-ylphenyl)urea]	50 nM
0.33 nM	109 nM	706 nM	< 1 nM	CCn1ncc2c(N3CC4CCC(C3)O4)nc(-c3ccc(NC(=O)Nc4ccc(C(=O)NN(C)C)cc4)cc3)nc21 [Example 289, 1-{4-[(2,2-dimethylhydrazino)carbonyl]phenyl}-3-{4-[1-ethyl-4-(8-oxa-3-azabicyclo[3.2.1]oct-3-yl)-1H-pyrazolo[3,4-d]pyrimidin-6-yl]phenyl}urea]	< 1 nM
0.175 nM	102 nM	757 nM	< 1 nM	CCn1ncc2c(N3CC4CCC(C3)O4)nc(-c3ccc(NC(=O)Nc4ccc(C(=O)NN5CCCC5)cc4)cc3)nc21 [Example 290, 4-[({4-[1-ethyl-4-(8-oxa-3-azabicyclo[3.2.1]oct-3-yl)-1H-pyrazolo[3,4-d]pyrimidin-6-yl]phenyl}carbamoyl)amino]-N-pyrrolidin-1-ylbenzamide]	4 nM
